# Source: patent US20240368118A1, “CEREBLON BINDING COMPOUNDS, COMPOSITIONS THEREOF, AND METHODS OF TREATMENT THEREWITH” (CELGENE CORPORATION, priority 2021, published 2024)
# Target: T1, AR (Homo sapiens, UniProt P10275)
# T1 construct: endogenous in cells; host or cells: VCaP cells
# T1 sequence (P10275 1-920): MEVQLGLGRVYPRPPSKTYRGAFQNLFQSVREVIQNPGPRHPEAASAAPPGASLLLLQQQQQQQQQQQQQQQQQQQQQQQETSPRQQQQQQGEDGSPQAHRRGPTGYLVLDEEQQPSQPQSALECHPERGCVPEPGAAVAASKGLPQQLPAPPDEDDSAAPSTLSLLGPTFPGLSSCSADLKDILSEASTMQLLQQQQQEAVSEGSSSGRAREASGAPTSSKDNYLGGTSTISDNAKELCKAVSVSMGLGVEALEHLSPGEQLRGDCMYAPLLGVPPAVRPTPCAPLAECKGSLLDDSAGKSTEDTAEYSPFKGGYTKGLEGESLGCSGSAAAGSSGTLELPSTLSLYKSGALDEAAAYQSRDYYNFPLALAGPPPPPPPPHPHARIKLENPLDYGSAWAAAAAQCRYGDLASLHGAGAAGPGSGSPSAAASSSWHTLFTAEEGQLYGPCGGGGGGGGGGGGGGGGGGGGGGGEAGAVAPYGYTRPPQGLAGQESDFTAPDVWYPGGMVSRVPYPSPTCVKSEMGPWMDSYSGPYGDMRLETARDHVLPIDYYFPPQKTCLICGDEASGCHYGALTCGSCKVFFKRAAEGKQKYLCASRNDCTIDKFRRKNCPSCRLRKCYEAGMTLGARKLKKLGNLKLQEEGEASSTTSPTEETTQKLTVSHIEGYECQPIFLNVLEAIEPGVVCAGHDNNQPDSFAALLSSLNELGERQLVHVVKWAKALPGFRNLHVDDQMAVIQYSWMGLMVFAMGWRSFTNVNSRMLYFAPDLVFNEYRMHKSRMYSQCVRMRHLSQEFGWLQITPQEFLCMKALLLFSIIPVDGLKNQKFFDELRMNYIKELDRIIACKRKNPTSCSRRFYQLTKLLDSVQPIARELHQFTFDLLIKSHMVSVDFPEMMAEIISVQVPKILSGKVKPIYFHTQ
# Assay: VCAP AR Degradation Assay
# Type: cell-based
# Conditions: VCaP cells, 24 h; for DC50: AR ELISA, concentration when AR level = 50% of DMSO control; for Ymin: lowest AR level normalized to DMSO control, given as numbers
# In short: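 VCaP cells in DMEM with 8% FBS treated 24 h at 37° C with a 10-point 1:3 series (top 5 μM final; 0.1% DMSO control). Total AR measured in lysates by sandwich ELISA and normalized to DMSO; DC50/EC50 from four-parameter logistic fit, with the lowest normalized AR level reported as Y.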
Compound,DC50 [nM],Ymin
"CC1(C)C(=O)N(c2ccc(C#N)c(C(F)(F)F)c2)C(=S)N1[C@H]1CC[C@H](CCCN2CCN(CC(=O)Nc3ccc(C4CCC(=O)NC4=O)cc3)[C@@H](C(F)(F)F)C2)CC1 (stereo partly drawn) [Cmpd 36, 2-((R)-4-(3-((trans)-4-(3-(4-Cyano-3-(trifluoromethyl)phenyl)-5,5-dimethyl-4-oxo-2-thioxoimidazolidin-1-yl)cyclohexyl)propyl)-2-(trifluoromethyl)piperazin-1-yl)-N-(4-(2,6-dioxopiperidin-3-yl)phenyl)acetamide]",15 to 100,24 % of DMSO control
"C[C@@H]1C[C@H](OCCC[C@H]2CC[C@H](N3C(=S)N(c4ccc(C#N)c(C(F)(F)F)c4)C(=O)C3(C)C)CC2)C[C@H](C)N1CC(=O)Nc1ccc(C2CCC(=O)NC2=O)cc1 (stereo partly drawn) [Cmpd 37, 2-((2R,4r,6S)-4-(3-((trans)-4-(3-(4-Cyano-3-(trifluoromethyl)phenyl)-5,5-dimethyl-4-oxo-2-thioxoimidazolidin-1-yl)cyclohexyl)propoxy)-2,6-dimethylpiperidin-1-yl)-N-(4-(2,6-dioxopiperidin-3-yl)phenyl)acetamide]",15 to 100,19 % of DMSO control
"C[C@@H]1C[C@H](OCCC[C@H]2CC[C@H](N3C(=S)N(c4cnc(C#N)c(C(F)(F)F)c4)C(=O)C3(C)C)CC2)C[C@H](C)N1CC(=O)Nc1ccc(C2CCC(=O)NC2=O)cc1 (stereo partly drawn) [Cmpd 38, 2-((2R,4r,6S)-4-(3-((trans)-4-(3-(6-Cyano-5-(trifluoromethyl)pyridin-3-yl)-5,5-dimethyl-4-oxo-2-thioxoimidazolidin-1-yl)cyclohexyl)propoxy)-2,6-dimethylpiperidin-1-yl)-N-(4-(2,6-dioxopiperidin-3-yl)phenyl)acetamide]",5 to 15,14 % of DMSO control
"C[C@@H]1C[C@H](OCC[C@H]2CC[C@H](N3C(=S)N(c4cnc(C#N)c(C(F)(F)F)c4)C(=O)C3(C)C)CC2)C[C@H](C)N1CC(=O)Nc1ccc(C2CCC(=O)NC2=O)cc1 (stereo partly drawn) [Cmpd 39, 2-((2R,4r,6S)-4-(2-((trans)-4-(3-(6-Cyano-5-(trifluoromethyl)pyridin-3-yl)-5,5-dimethyl-4-oxo-2-thioxoimidazolidin-1-yl)cyclohexyl)ethoxy)-2,6-dimethylpiperidin-1-yl)-N-(4-(2,6-dioxopiperidin-3-yl)phenyl)acetamide]",≤ 5,14 % of DMSO control
"C[C@@H]1C[C@H](OCC[C@H]2CC[C@H](N3C(=S)N(c4ccc(C#N)c(C(F)(F)F)c4)C(=O)C3(C)C)CC2)C[C@H](C)N1CC(=O)Nc1ccc(C2CCC(=O)NC2=O)cc1 (stereo partly drawn) [Cmpd 40, 2-((2R,4r,6S)-4-(2-((trans)-4-(3-(4-Cyano-3-(trifluoromethyl)phenyl)-5,5-dimethyl-4-oxo-2-thioxoimidazolidin-1-yl)cyclohexyl)ethoxy)-2,6-dimethylpiperidin-1-yl)-N-(4-(2,6-dioxopiperidin-3-yl)phenyl)acetamide]",5 to 15,21 % of DMSO control
"C[C@@H]1C[C@H](OCCO[C@H]2CC[C@H](N3C(=S)N(c4cnc(C#N)c(C(F)(F)F)c4)C(=O)C3(C)C)CC2)C[C@H](C)N1CC(=O)Nc1ccc(C2CCC(=O)NC2=O)cc1 (stereo partly drawn) [Cmpd 41, 2-((2R,4r,6S)-4-(2-(((trans)-4-(3-(6-Cyano-5-(trifluoromethyl)pyridin-3-yl)-5,5-dimethyl-4-oxo-2-thioxoimidazolidin-1-yl)cyclohexyl)oxy)ethoxy)-2,6-dimethylpiperidin-1-yl)-N-(4-(2,6-dioxopiperidin-3-yl)phenyl)acetamide]",≤ 5,17 % of DMSO control
"C[C@@H]1C[C@H](OCCO[C@H]2CC[C@H](N3C(=S)N(c4ccc(C#N)c(C(F)(F)F)c4)C(=O)C3(C)C)CC2)C[C@H](C)N1CC(=O)Nc1ccc(C2CCC(=O)NC2=O)cc1 (stereo partly drawn) [Cmpd 42, 2-((2R,4r,6S)-4-(2-(((trans)-4-(3-(4-Cyano-3-(trifluoromethyl)phenyl)-5,5-dimethyl-4-oxo-2-thioxoimidazolidin-1-yl)cyclohexyl)oxy)ethoxy)-2,6-dimethylpiperidin-1-yl)-N-(4-(2,6-dioxopiperidin-3-yl)phenyl)acetamide]",5 to 15,19 % of DMSO control
